Laboratory results published in ChEMBL document CHEMBL4507303, “Data for DCP probe TP-004” (2021).

How the values were obtained:
[1] = test system: Phosphatidylinositol 4,5-bisphosphate 3-kinase catalytic subunit alpha isoform (Homo sapiens), P42336 [E545K]; conditions: Compound concentration 1000.0 nM
[2] = target: Wee1-like protein kinase (Homo sapiens) (UniProt P30291); conditions: Compound concentration 1000.0 nM
[3] = test system: Receptor-type tyrosine-protein kinase FLT3 (Homo sapiens), P36888 [N841I]; conditions: Compound concentration 1000.0 nM
[4] = target: Protein-tyrosine kinase 2-beta (Homo sapiens) (UniProt Q14289); conditions: Compound concentration 1000.0 nM
Sequence of Protein-tyrosine kinase 2-beta (Homo sapiens) (Q14289 whole entry, looked up, canonical isoform): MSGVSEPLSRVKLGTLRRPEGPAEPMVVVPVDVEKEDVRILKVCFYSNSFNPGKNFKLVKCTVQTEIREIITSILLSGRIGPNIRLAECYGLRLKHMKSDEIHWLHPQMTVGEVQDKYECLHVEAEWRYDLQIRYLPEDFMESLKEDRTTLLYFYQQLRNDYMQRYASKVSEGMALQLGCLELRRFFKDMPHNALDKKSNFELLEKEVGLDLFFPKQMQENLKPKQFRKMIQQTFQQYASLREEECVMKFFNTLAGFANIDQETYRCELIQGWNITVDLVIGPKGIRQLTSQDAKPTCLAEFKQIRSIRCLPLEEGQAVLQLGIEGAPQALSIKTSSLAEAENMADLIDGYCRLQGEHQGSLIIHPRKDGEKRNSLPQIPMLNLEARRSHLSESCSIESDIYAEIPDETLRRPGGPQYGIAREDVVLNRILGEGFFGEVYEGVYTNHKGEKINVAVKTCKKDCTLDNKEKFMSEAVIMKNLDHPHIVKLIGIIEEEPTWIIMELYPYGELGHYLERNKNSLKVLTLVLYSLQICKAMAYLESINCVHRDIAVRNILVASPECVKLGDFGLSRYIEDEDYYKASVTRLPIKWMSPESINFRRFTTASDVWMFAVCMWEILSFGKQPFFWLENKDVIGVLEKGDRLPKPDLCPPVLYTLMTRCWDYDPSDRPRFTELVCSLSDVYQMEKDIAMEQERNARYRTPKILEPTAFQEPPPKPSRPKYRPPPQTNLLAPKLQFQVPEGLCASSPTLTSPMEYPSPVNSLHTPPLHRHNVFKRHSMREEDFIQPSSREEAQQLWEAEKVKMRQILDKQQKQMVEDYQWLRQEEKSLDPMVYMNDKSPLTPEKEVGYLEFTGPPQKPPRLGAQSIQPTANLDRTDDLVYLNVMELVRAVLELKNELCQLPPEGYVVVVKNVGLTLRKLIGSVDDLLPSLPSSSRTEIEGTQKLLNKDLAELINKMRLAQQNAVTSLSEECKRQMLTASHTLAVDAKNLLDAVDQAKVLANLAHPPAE

[5] = target: Casein kinase I isoform gamma-3 (Homo sapiens) (UniProt Q9Y6M4); conditions: Compound concentration 1000.0 nM
[6] = target: Serine/threonine-protein kinase PAK 6 (Homo sapiens) (UniProt Q9NQU5); conditions: Compound concentration 1000.0 nM
[7] = target: Dual specificity mitogen-activated protein kinase kinase 5 (Homo sapiens) (UniProt Q13163); conditions: Compound concentration 1000.0 nM
Sequence of Dual specificity mitogen-activated protein kinase kinase 5 (Homo sapiens) (Q13163 whole entry): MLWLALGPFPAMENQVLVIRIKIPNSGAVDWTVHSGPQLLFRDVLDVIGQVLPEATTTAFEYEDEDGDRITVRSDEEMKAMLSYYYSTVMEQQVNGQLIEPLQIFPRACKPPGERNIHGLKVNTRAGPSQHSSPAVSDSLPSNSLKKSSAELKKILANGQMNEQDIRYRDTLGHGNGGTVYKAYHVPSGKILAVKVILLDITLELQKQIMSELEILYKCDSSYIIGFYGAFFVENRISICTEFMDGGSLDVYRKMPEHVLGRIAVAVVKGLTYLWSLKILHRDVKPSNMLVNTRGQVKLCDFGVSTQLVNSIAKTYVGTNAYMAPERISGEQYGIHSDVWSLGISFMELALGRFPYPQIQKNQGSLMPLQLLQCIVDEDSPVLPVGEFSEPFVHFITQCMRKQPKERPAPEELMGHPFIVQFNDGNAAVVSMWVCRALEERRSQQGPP

[8] = target: Homeodomain-interacting protein kinase 2 (Homo sapiens) (UniProt Q9H2X6); conditions: Compound concentration 1000.0 nM
[9] = target: Mu-type opioid receptor (Homo sapiens) (UniProt P35372); conditions: Compound concentration 10.0 uM
[10] = target: TRAF2 and NCK-interacting protein kinase (Homo sapiens) (UniProt Q9UKE5); conditions: Compound concentration 1000.0 nM
[11] = target: Mitogen-activated protein kinase kinase kinase kinase 2 (Homo sapiens) (UniProt Q12851); conditions: Compound concentration 1000.0 nM
Sequence of Mitogen-activated protein kinase kinase kinase kinase 2 (Homo sapiens) (Q12851 whole entry): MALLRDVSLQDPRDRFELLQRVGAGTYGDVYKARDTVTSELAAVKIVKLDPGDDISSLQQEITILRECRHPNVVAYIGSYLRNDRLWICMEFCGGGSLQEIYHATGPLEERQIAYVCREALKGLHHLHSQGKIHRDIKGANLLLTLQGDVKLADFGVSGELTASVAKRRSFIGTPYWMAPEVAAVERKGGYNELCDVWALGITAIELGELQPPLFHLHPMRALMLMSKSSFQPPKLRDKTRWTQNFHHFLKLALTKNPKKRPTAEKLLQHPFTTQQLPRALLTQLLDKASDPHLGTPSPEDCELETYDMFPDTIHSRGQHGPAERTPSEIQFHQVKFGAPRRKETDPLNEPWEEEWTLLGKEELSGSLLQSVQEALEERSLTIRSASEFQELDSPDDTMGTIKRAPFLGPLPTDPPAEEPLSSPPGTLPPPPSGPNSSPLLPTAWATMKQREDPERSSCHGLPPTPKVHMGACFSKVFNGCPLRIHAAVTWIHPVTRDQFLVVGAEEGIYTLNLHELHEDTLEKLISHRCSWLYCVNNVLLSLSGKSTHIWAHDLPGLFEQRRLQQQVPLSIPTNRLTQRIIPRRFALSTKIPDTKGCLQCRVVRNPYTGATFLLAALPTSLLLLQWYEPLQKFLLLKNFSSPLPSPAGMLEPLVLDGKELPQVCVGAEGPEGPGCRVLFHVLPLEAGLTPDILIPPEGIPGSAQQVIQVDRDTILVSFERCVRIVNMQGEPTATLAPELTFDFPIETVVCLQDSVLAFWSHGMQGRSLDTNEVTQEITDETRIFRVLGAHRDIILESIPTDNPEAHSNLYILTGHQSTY

[12] = target: Tyrosine-protein kinase receptor Tie-1 (Homo sapiens) (UniProt P35590); conditions: Compound concentration 1000.0 nM
[13] = test system: Receptor-type tyrosine-protein kinase FLT3 (Homo sapiens), P36888 [D835V]; conditions: Compound concentration 1000.0 nM
[14] = target: Ribosomal protein S6 kinase alpha-5 (Homo sapiens) (UniProt O75582); conditions: Compound concentration 1000.0 nM
[15] = test system: Serine/threonine-protein kinase B-raf (Homo sapiens), P15056 [V600E]; conditions: Compound concentration 1000.0 nM
[16] = target: Serine/threonine-protein kinase mTOR (Homo sapiens) (UniProt P42345); conditions: Compound concentration 1000.0 nM
[17] = target: Fibroblast growth factor receptor 3 (Homo sapiens) (UniProt P22607); conditions: Compound concentration 1000.0 nM
[18] = target: Serine/threonine-protein kinase MRCK beta (Homo sapiens) (UniProt Q9Y5S2); conditions: Compound concentration 1000.0 nM
Sequence of Serine/threonine-protein kinase MRCK beta (Homo sapiens) (Q9Y5S2 whole entry): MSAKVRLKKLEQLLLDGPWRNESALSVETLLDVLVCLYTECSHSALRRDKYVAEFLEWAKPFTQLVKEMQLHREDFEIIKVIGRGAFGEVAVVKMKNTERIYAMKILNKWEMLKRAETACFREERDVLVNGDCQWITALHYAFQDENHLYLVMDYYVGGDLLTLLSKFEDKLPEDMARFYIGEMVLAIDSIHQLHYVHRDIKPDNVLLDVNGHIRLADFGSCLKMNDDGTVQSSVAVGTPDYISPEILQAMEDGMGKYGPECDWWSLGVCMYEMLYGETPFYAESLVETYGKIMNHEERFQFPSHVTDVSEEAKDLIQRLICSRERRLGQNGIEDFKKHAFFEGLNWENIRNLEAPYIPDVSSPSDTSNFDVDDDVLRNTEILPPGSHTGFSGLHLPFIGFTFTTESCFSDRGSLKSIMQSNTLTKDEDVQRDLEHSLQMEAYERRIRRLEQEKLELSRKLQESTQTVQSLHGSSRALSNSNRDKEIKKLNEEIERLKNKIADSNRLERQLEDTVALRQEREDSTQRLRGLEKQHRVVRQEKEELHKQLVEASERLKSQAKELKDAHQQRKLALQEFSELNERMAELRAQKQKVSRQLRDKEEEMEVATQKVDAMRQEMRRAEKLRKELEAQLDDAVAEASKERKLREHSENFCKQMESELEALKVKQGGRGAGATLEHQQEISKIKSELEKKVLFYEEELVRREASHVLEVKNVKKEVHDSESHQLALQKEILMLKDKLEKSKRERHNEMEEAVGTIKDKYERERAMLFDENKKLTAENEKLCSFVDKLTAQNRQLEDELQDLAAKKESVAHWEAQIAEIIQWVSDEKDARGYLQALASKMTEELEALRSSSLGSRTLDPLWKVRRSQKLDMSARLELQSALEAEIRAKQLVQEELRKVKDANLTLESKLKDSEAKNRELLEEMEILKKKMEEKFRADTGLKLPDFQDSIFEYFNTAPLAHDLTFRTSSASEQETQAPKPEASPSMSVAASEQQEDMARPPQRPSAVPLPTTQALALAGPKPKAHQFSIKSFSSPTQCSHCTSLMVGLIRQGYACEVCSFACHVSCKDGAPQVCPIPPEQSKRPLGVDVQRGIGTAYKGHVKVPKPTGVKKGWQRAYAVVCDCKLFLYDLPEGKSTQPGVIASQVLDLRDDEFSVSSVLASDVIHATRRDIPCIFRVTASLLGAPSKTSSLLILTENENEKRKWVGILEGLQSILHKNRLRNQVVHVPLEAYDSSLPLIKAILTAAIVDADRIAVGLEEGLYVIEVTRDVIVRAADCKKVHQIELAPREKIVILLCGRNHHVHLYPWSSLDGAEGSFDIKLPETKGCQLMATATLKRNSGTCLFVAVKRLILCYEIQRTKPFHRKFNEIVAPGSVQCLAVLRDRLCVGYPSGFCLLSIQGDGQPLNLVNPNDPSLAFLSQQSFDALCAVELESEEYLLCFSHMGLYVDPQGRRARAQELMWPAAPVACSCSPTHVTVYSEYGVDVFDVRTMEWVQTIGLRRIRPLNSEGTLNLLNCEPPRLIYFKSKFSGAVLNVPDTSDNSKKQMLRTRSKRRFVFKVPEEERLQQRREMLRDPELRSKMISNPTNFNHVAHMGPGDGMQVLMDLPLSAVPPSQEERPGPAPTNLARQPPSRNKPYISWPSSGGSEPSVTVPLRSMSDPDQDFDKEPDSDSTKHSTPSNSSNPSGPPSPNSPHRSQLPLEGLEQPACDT

Sequence of Phosphatidylinositol 4,5-bisphosphate 3-kinase catalytic subunit alpha isoform (Homo sapiens), P42336 [E545K] (P42336 whole entry E545K, canonical isoform): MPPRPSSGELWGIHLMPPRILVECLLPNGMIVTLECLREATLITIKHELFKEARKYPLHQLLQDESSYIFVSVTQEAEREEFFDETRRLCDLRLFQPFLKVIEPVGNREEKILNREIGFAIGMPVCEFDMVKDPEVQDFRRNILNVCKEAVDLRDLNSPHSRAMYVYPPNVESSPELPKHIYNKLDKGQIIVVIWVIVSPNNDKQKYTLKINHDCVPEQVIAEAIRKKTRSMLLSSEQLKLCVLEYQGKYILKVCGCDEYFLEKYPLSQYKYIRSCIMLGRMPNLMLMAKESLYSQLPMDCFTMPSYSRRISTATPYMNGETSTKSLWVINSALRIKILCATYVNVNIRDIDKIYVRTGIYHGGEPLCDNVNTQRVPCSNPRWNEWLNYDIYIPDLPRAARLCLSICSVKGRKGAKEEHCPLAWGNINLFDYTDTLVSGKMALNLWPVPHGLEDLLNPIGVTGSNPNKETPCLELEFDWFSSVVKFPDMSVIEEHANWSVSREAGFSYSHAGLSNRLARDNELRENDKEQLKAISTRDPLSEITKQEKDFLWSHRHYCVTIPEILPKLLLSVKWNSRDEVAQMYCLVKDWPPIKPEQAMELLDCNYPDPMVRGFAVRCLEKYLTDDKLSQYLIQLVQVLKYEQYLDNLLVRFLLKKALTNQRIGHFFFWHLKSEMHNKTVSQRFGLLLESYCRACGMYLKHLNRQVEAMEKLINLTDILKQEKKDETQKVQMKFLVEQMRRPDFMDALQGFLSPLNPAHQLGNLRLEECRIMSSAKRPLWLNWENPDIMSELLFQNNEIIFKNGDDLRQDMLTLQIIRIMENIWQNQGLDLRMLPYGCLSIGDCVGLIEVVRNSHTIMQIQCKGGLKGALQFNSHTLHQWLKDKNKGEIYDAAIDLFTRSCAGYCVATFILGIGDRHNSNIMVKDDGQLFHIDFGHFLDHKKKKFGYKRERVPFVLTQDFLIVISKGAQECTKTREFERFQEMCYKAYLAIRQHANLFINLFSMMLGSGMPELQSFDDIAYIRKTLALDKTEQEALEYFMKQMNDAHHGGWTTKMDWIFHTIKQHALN

Cc1nc(N2CC[C@@H](O)C2)ncc1-c1cc(C(F)(F)F)cc2[nH]ncc12 [TP-004]
inactive: residual activity [1] 56% | residual activity [2] 73% | residual activity [3] 88% | residual activity [4] 100% | residual activity [5] 74% | residual activity [6] 100% | residual activity [7] 68% | residual activity [8] 74% | inhibition [9] 7.79% | residual activity [10] 100% | residual activity [11] 76% | residual activity [12] 91% | residual activity [13] 58% | residual activity [14] 100% | residual activity [15] 77% | residual activity [16] 100% | residual activity [17] 100% | residual activity [18] 100%
